Test results as given in patent US8367410B2, “Application of electrical stimulation for functional tissue engineering in vitro and in vivo” (Massachusetts Institute of Technology, priority 2003, dated 2013).
Marks after values point to notes of the source that are not given here.

Columns and labels:
[1] = tested on: engineered cardiac constructs cultured in perfused cartridges; assay: Contractile function (ET, MCR) of perfused constructs, palmitoleic acid treatment and washout; assay type: cell-based, rat; details: mean +/- SE
Protocol: (§1) Contractile function. The contractile function of engineered cardiac constructs was evaluated by monitoring contractile activity upon electrical stimulation at ×10 magnification using a microscope (Nikon Diaphot). Each construct was placed in a 100-mm petri dish containing […] Tyrode solution (140 mM NaCl, 5.4 mM KC1, 0.33 mM NaH2PO4, 1.8 mM CaCl2, 1 mM MgCl2, 5 mM HEPES, and 5.5 MM D-glucose; pH 7.4) between two custom-made gold electrodes connected to a cardiac stimulator (Nihon Kohden). The temperature was maintained at 37° C. using a heating tape (VWR) attached to the bottom of the petri dish.
(§2) The maximum capture rate (MCR) was defined as the maximum pacing frequency (in beats/min) for a synchronous stimulus response of the constructs. To measure MCR, the stimulation frequency was increased (from 60 to 600 beats/min, in 20 beats/min increments) at a constant voltage (equal to either 150% or 200% of the ET). The construct response was measured at each frequency, and the frequency was increased until the contractions became asynchronous, irregular, or completely ceased. The maximum frequency for synchronous contractions was recorded as the MCR. The value of ET, which was different from one construct to another due to the differences in their structures, served as the baseline voltage for the measurement of MCR.
(§3) Constructs cultured in perfused cartridges were compared with constructs cultured in mixed dishes and to neonatal rat ventricles (full thickness slices obtained by bisecting the left ventricle parallel to the base apex line). The effect of palmitoleic acid (PA), a gap junction blocker (4), was investigated by incubating constructs or slices of native ventricles in PA (8.3 mM in Tyrode solution) for 20 min at 37° C. and then determining ET and MCR as described above. To test whether the effect of PA was reversible, constructs were transferred to Tyrode solution and retested after an additional 20 min at 37° C.

[2] = tested on: engineered cardiac constructs cultured in mixed dishes; assay: Contractile function (ET, MCR) of dish-grown constructs, palmitoleic acid treatment and washout; assay type: cell-based, rat
Protocol: as §1, §2, §3

[3] = tested on: neonatal rat ventricles; assay: Contractile function (ET, MCR) of neonatal rat ventricle slices, palmitoleic acid treatment and washout; assay type: cell-based; details: mean +/- SE
Protocol: as §1, §2, §3

[4] = tested on: engineered cardiac constructs; assay: Contractile activity of constructs during incubation with palmitoleic acid; assay type: cell-based, rat
Protocol: as §1, §3

[5] = perfused construct, after washout of PA
[6] = dish-grown construct, after washout of PA, mean +/- SE

CCCCCC/C=C\CCCCCCCC(=O)O [PA, palmitoleic acid]
ET (excitation threshold), After PA ([1]; perfused construct (7 days at 500 μm/s), after washout of PA (8.3 mM, 20 min), 60 beats/min): 3.5 +/− 0.1^a V
MCR at 150% ET, After PA [1, 5]: 415 +/− 35 beats/min
MCR at 200% ET, After PA [1, 5]: 435 +/− 45 beats/min
ET (excitation threshold), After PA ([2]; dish-grown construct (7 days at 25 rpm), after washout of PA (8.3 mM, 20 min), 60 beats/min, mean +/- SE): 4.4 +/− 0.1^ab V
MCR at 150% ET, After PA [2, 6]: 378 +/− 31^c beats/min
MCR at 200% ET, After PA [2, 6]: 380 +/− 31^c beats/min
Recovery of MCR after PA washout ([2]; dish-grown constructs): failed to recover their baseline levels
ET (excitation threshold), After PA ([3]; after washout of PA (8.3 mM, 20 min, 37° C.), stimulation 60 beats/min): 1.5 +/− 0.1 V
MCR at 150% ET, After PA ([3]; after washout of PA): 465 +/− 15 beats/min
MCR at 200% ET, After PA ([3]; after washout of PA): 427 +/− 58 beats/min
Contractile activity after the washout of PA ([4]; after transfer to Tyrode solution, 20 min at 37° C.): Contractile activity resumed
Voltage at which synchronous construct contractions could not be induced ([4]; upon incubation with PA (8.3 mM in Tyrode solution)): > 9.9 V
